Each structure is given as a SMILES string. Activity calls are given as the source filed them. No cut-off for these calls is given here.

Test [1] has as its system Ralstonia solanacearum. Format: functional.
Test [2] concerns Ralstonia solanacearum.
For test [3], the system named is Ralstonia solanacearum. This is another data set of the same source.
In test [4] the test system is Ralstonia solanacearum. Format: functional. This is another data set of the same source.
The test system of test [5] is Ralstonia solanacearum. Format: functional. This is another data set of the same source.
Test [6] relates to Ralstonia solanacearum. Format: functional. This is another data set of the same source.

Take `COC(=O)c1ccc(OC)cc1O`: the “diameter of the inhibition zone (DIZ)” value in the test on Ralstonia solanacearum [1] was determined as 11 mm. Besides, in the test with Ralstonia solanacearum [2], the DIZ result was “inactive”.
Take `CCCCCCCCCCCCOC(=O)c1cc(O)c(O)c(O)c1`: the DIZ result in the test on Ralstonia solanacearum [3] and in the test on Ralstonia solanacearum [2] was “inactive” each time.
As to `CCCCCCCCCOC(=O)c1ccc(O)cc1`, the DIZ result in the test on Ralstonia solanacearum [3] and with Ralstonia solanacearum [2] was “inactive” throughout.
For `COC(=O)c1cc(OC)cc(OC)c1`, the DIZ entry with Ralstonia solanacearum [3] and in the test with Ralstonia solanacearum [2] was “inactive” each time.
Regarding `COC(=O)c1ccccc1O`, the DIZ entry in the test with Ralstonia solanacearum [3] and in the test with Ralstonia solanacearum [2] was “inactive” each time.
For the molecule `COc1cc(/C=C/C(=O)O)cc(OC)c1O`, the DIZ entry in the test on Ralstonia solanacearum [3] and in the test on Ralstonia solanacearum [2] was “inactive” each time.
In the case of `COc1cc(/C=C/C(=O)O)ccc1O`, the DIZ entry with Ralstonia solanacearum [3] and in the test on Ralstonia solanacearum [2] was “inactive” in each case.
Take `COc1ccc(/C=C/C(=O)O)cc1O`: the DIZ result in the test with Ralstonia solanacearum [3] and in the test with Ralstonia solanacearum [2] was “inactive” throughout.
As for `C[C@@H]1O[C@@H](OC[C@H]2O[C@@H](Oc3c(-c4ccc(O)c(O)c4)oc4cc(O)cc(O)c4c3=O)[C@H](O)[C@@H](O)[C@@H]2O)[C@H](O)[C@H](O)[C@H]1O`, the DIZ entry with Ralstonia solanacearum [3] and in the test with Ralstonia solanacearum [2] was “inactive” throughout.
Regarding `O=C(/C=C/c1ccc(O)c(O)c1)O[C@@H]1C[C@](O)(C(=O)O)C[C@@H](O)[C@H]1O`, the DIZ result with Ralstonia solanacearum [3] and in the test with Ralstonia solanacearum [2] was “inactive” in each case.
For the molecule `O=C(O)/C=C/c1ccc(O)c(O)c1`, the DIZ result in the test on Ralstonia solanacearum [3] and with Ralstonia solanacearum [2] was “inactive” each time.
With `O=c1c(O)c(-c2ccc(O)c(O)c2)oc2cc(O)cc(O)c12`, the DIZ entry in the test on Ralstonia solanacearum [3] and in the test with Ralstonia solanacearum [2] was “inactive” throughout.
For the molecule `O=c1oc2c(O)c(O)cc3c(=O)oc4c(O)c(O)cc1c4c23`, the DIZ entry in the test on Ralstonia solanacearum [3] and with Ralstonia solanacearum [2] was “inactive” each time.
In the case of `O=C(O)c1cccc(O)c1` [3-HYDROXYBENZOIC ACID], in the test with Ralstonia solanacearum [1], the “diameter of the inhibition zone (DIZ)” value is given as 14 mm. Moreover, the DIZ result with Ralstonia solanacearum [2] is “inactive”.
In the same order, the values of `O=C(O)/C=C/c1ccccc1` [CINNAMIC ACID] are 13 mm and “inactive”.
The like results for `O=C(O)/C=C/c1ccc(O)cc1` [COUMARIC ACID] were, in that order, 11 mm and “inactive”.
Regarding `CCOC(=O)c1cc(O)c(O)c(O)c1` [ETHYLGALLATE], the results for the “diameter of the inhibition zone (DIZ)” value with Ralstonia solanacearum [1] and in the test on Ralstonia solanacearum [4] were 42 mm and 18 mm, respectively.
As for `CCOC(=O)c1ccc(O)cc1` [ETHYLPARABEN], in the test with Ralstonia solanacearum [1], the “diameter of the inhibition zone (DIZ)” value was determined as 29 mm. In the test with Ralstonia solanacearum [2], the DIZ entry was “inactive”.
For `COC(=O)c1cc(O)c(O)c(O)c1` [GALLIC ACID METHYL ESTER], the “diameter of the inhibition zone (DIZ)” value with Ralstonia solanacearum [1] is listed as 54 mm; in the test with Ralstonia solanacearum [4], 22 mm; with Ralstonia solanacearum [5] it was 18 mm; with Ralstonia solanacearum [6] it was 11 mm.
For the molecule `O=C(O)c1cc(O)c(O)c(O)c1` [GALLIC ACID], the “diameter of the inhibition zone (DIZ)” value in the test with Ralstonia solanacearum [1] was determined as 12 mm. Besides, the DIZ entry with Ralstonia solanacearum [2] is “inactive”.
Turning to `COC(=O)c1cccc(O)c1O` [METHYL 2,3-DIHYDROXYBENZOATE], the “diameter of the inhibition zone (DIZ)” value in the test on Ralstonia solanacearum [1] was determined as 58 mm; with Ralstonia solanacearum [4], 13 mm.
`COC(=O)c1ccc(O)cc1O` [METHYL 2,4-DIHYDROXYBENZOATE]: in the test on Ralstonia solanacearum [1], the “diameter of the inhibition zone (DIZ)” value was found to be 32 mm. The DIZ entry in the test on Ralstonia solanacearum [2] is “inactive”.
In the same order, the values of `COC(=O)c1cc(O)ccc1O` [METHYL 2,5-DIHYDROXYBENZOATE] are 43 mm and “inactive”.
In the same order, the values of `COC(=O)c1cc(O)cc(O)c1` [METHYL 3,5-DIHYDROXYBENZOATE] are 18 mm and “inactive”.
The like results for `COC(=O)c1cccc(O)c1` [METHYL 3-HYDROXYBENZOATE] were, in that order, 23 mm and “inactive”.
Take `COC(=O)c1ccc(O)c(O)c1` [METHYL PROTOCATECHUATE]: the results for the “diameter of the inhibition zone (DIZ)” value with Ralstonia solanacearum [1] and with Ralstonia solanacearum [4] were 37 mm and 11 mm, respectively.
Consider `COC(=O)c1ccc(O)c(OC)c1` [METHYL VANILLATE], for which, in the test with Ralstonia solanacearum [1], the “diameter of the inhibition zone (DIZ)” value came to 15 mm. Further, the DIZ result in the test with Ralstonia solanacearum [2] was “inactive”.
In the same order, the values of `COC(=O)c1ccc(O)cc1` [METHYLPARABEN] are 36 mm and “inactive”.
The like results for `O=C(O)/C=C/c1ccccc1O` [O-COUMARIC ACID] were, in that order, 16 mm and “inactive”.
As for `CCCCCCCCOC(=O)c1cc(O)c(O)c(O)c1` [OCTYL_GALLATE], the entries for the “diameter of the inhibition zone (DIZ)” value in the test on Ralstonia solanacearum [1] and in the test with Ralstonia solanacearum [4] were 12 mm and 11 mm, respectively.
Take `O=C(O)c1ccc(O)cc1` [PARABEN]: the “diameter of the inhibition zone (DIZ)” value in the test on Ralstonia solanacearum [1] turned out to be 13 mm. For the same molecule, the DIZ result in the test on Ralstonia solanacearum [2] was “inactive”.
Turning to `CCCOC(=O)c1cc(O)c(O)c(O)c1` [PROPYL GALLATE], the “diameter of the inhibition zone (DIZ)” value was 31 mm in the test with Ralstonia solanacearum [1] and 11 mm in the test on Ralstonia solanacearum [4].
Turning to `CCCOC(=O)c1ccc(O)cc1` [PROPYLPARABEN], the “diameter of the inhibition zone (DIZ)” value in the test with Ralstonia solanacearum [1] is given as 17 mm. Also, in the test with Ralstonia solanacearum [2], the DIZ entry was “inactive”.
As to `O=C(O)c1ccccc1O` [SALICYLIC ACID], the “diameter of the inhibition zone (DIZ)” value in the test on Ralstonia solanacearum [1] is on record as 16 mm.
